Test results as given in ChEMBL document CHEMBL1201862, “PubChem BioAssay data set” (2004).
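Tested at 5 concentrations; 48 h exposure; 96-well plates; endpoints linearly interpolated, else capped at highest concentration. GI50 marks 50% less growth.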 Active and inactive are the calls of the source. Rule as the data show it: active = GI50 up to about 1.1 µM and inactive = higher.

Experiments:
Assay in all cases: NCI anticancer screen, dose series, 48 h
[1] = system: HCT-15
[2] = system: HOP-92
[3] = system: SK-MEL-2
[4] = system: HCC 2998
[5] = system: UO-31
[6] = system: HT-29
[7] = system: SK-OV-3
[8] = system: A549
[9] = system: TK-10
[10] = system: SK-MEL-28
[11] = system: IGROV-1
[12] = system: SW-620
[13] = system: NCI/ADR-RES
[14] = system: OVCAR-5
[15] = system: HCT-116
[16] = system: SR
[17] = system: SF-295
[18] = system: UACC-257
[19] = system: SF-539
[20] = system: SNB-75

Compound | GI50 [1] | GI50 [2] | GI50 [3] | GI50 [4] | GI50 [5] | GI50 [6] | GI50 [7] | GI50 [8] | GI50 [9] | GI50 [10] | GI50 [11] | GI50 [12] | GI50 [13] | GI50 [14] | GI50 [15] | GI50 [16] | GI50 [17] | GI50 [18] | GI50 [19] | GI50 [20]
CCOC(=O)CCN1C(=O)c2c(NC(=O)C(=O)O)cccc2S1(=O)=O | > 100 µM | > 100 µM (inactive) | > 100 µM (inactive) | > 100 µM (inactive) | > 100 µM (inactive) | > 100 µM (inactive) | > 100 µM (inactive) | > 100 µM (inactive) | > 100 µM (inactive) | > 100 µM (inactive) | > 100 µM (inactive) | > 100 µM (inactive) | > 100 µM (inactive) | > 100 µM (inactive) | > 100 µM (inactive) | > 100 µM (inactive) | > 100 µM (inactive) | > 100 µM (inactive) |  | 
O=C(Nc1ccccc1C(=O)NCCCO)/C(=C/c1ccccc1O)NC(=O)c1ccccc1 | > 78.2 µM | 53.3 µM (inactive) | 44.3 µM (inactive) | > 100 µM (inactive) | 20.7 µM (inactive) | > 100 µM (inactive) | 51.5 µM (inactive) | > 100 µM (inactive) | 97.9 µM (inactive) | > 100 µM (inactive) | 36.6 µM (inactive) | > 84.3 µM (inactive) | 17 µM (inactive) | > 100 µM (inactive) | 37.3 µM (inactive) | > 100 µM (inactive) | 34.4 µM (inactive) | > 100 µM (inactive) | 30.8 µM (inactive) | 20.2 µM (inactive)
CCP(=O)(CC)C(Cl)(Cl)C(O)C(Cl)(Cl)Cl (centres undefined) | > 100 µM | > 100 µM (inactive) | > 100 µM (inactive) | > 100 µM (inactive) | > 100 µM (inactive) | > 100 µM (inactive) | > 100 µM (inactive) | > 100 µM (inactive) | > 100 µM (inactive) | > 100 µM (inactive) | > 100 µM (inactive) | > 100 µM (inactive) | > 100 µM (inactive) | > 100 µM (inactive) | > 100 µM (inactive) | > 100 µM (inactive) | > 100 µM (inactive) | > 100 µM (inactive) |  | > 100 µM (inactive)
Cc1c(C)c2ccc(OCC(O)COC(C)C)c(C)c2oc1=O (centres undefined) |  | 33.2 µM (inactive) | 20.1 µM (inactive) | 24.8 µM (inactive) | 41.8 µM (inactive) | 31 µM (inactive) | > 100 µM (inactive) | 34.7 µM (inactive) | 25.1 µM (inactive) | 34 µM (inactive) | 70.6 µM (inactive) | 29.4 µM (inactive) | 41.5 µM (inactive) | 39.1 µM (inactive) | 18.5 µM (inactive) | 26.7 µM (inactive) | 23.5 µM (inactive) | 19.8 µM (inactive) |  | 
